Results as given in patent US12708620B2, “Prodrugs and medical uses thereof” (priority 2018, dated 2026).
Like-named read-outs stand apart in the source and are kept apart here.

Legend:
Experiment in all cases: resazurin-based potency assay, normoxia vs anoxia
Format in all cases: cell-based, human
Conditions in all cases: for IC50: Homo sapiens, 4 h exposure then 96 h
[1] = system: BxPC-3
Description: (§1) The IC50 values were obtained using the resazurin-based potency assay under anoxic (<0.01% O2) and/or normoxic conditions (21% O2). The hypoxia cytotoxicity ratio (HCR) is calculated as the ratio of IC50 value […] (HCR=IC50 normoxia/IC50 anoxia).
(§2) For anoxic condition, the complete medium for each cell line (25 ml in a T25 or 80 ml in a T80) was equilibrated in the anoxic chamber 48 h before use to allow an as large as possible interchange between media and atmosphere, agitating the flask once a day and just before use. The 96-well plates for cell seeding and the 96-well plates for preparation of a mother plate containing the compound to be tested (e.g. Cpd.11 Ms) at appropriate concentrations as well as disposable reagent reservoirs and pipet tips that are required for cell seeding under anoxic conditions were placed in anoxia at least 72 h before use. The mother plate for treatment of the cells under anoxia was prepared with anoxic medium and in anoxia pre-incubated plastics, the mother plate for treatment of the cells in normoxia was prepared with normoxic medium in a standard cell culture hood.
(§3) Cell seeding was performed starting from a cell suspension (70% confluent flasks of cells). Appropriate cell numbers/volumes were used at the pre-determined cell density (typically 100 μl/well) as determined by performing a growth curve experiment were calculated. For anoxic conditions, the appropriate number of cells was transferred to the anoxic chamber and diluted to the appropriate cell concentration in anoxic complete medium. The cells were allowed to adhere for 2 hours in the anoxic chamber at 37° C. In normoxic conditions, usual cell seeding and complete medium protocols were used (in a volume of 100 μl/well in 96-well plates). The cells were allowed to adhere for 2 hours at 37° C. in a regular cell culture CO2 incubator. In both conditions, the remaining empty wells in 96-well plates were filled with 200 μl anoxic or normoxic medium to prevent evaporation.
(§4) Fresh Cpd.11 Ms stock solution was thawed just before the experiment and shielded from the light. A 96-well microtiter plate was filled with 176.4 μl of complete normoxic (RT) or anoxic medium in the first column and 120 μl of complete normoxic or anoxic medium with 2% DMSO for the other columns of wells. 3.6 μl per well of the compound stock solution (Cpd.11, Cpd.11 Ms, Cpd.11c, or Cpd.11d; 150 mM) was added to the first column. The solution of the first column was pipetted up and down and 60 μl was transferred to the second column to perform 1/3 serial dilutions pipetting up and down 3 times between each transfer. This was repeated until the 11th column. No Cpd.11 Ms was added to the 12th column. The plate was prepared no longer than 30 minutes before use and protected from direct light exposure. Two hours after seeding the cells, 100 μl of the mother plate was added to each well and plates remained for 4 h in the anoxic chamber or in cell culture incubator at 37° C. After 4 h, the plate in the anoxic chamber was transferred to normoxia. Visual inspection of all plates (few random wells per plate) under microscope was performed and medium was removed from all plates by aspiration. Cells were washed once with 200 μl PBS (RT) and 200 μl of fresh normoxic complete medium (RT) was added to each well (including all wells without cells). All plates were incubated for 96 hours in normoxia at 37° C. in a standard cell culture incubator.
(§5) For the cell viability assay, the resazurin final working solution was prepared freshly by diluting the resazurin stock solution (0.1 mg/ml) 1/10 in complete medium (RT) of the respective cell lines to obtain a final concentration of 0.01 mg/ml resazurin. After 96 hours incubation in normoxia, a visual inspection of all the plates (few random wells per plate) was performed under the microscope and the medium in each well was removed by aspiration. […]

[2] = system: BT-474
Description: as §1, §2, §3, §4, §5

[3] = system: DMS114
Description: as §1, §2, §3, §4, §5

[4] = system: NCI-H1975
Description: as §1, §2, §3, §4, §5

[5] = system: NCI-H1650
Description: as §1, §2, §3, §4, §5

[6] = system: HCC1937
Description: as §1, §2, §3, §4, §5

[7] = system: MDA-MB-231
Description: as §1, §2, §3, §4, §5

[8] = system: PANC-1
Description: as §1, §2, §3, §4, §5

[9] = anoxia (<0.01% O2), read-out: IC50 Average for Cpd.11Ms ANX (SD)
[10] = normoxia (21% O2), read-out: IC50 Average for Cpd.11Ms NRX (SD)

With `CCN1CCN(C(=O)c2cc(N(CCBr)CCOS(C)(=O)=O)c(S(C)(=O)=O)cc2[N+](=O)[O-])CC1.CS(=O)(=O)O` [Cpd.11 Ms, 4-(5-((2-bromoethyl) (2-((methylsulfonyl)oxy)ethyl)amino)-4-(methylsulfonyl)-2-nitrobenzoyl)-1-ethylpiperazin-1-ium methanesulfonate] the “Average of HCR (SD)” value ([1]; HCR=IC50 normoxia/IC50 anoxia) was 22.7 (4.2), the IC50 [1, 9] was 68.2 µM and the IC50 [1, 10] was over 1500 µM. For the same compound, the “Average of HCR (SD)” value ([2]; HCR=IC50 normoxia/IC50 anoxia) was 102.6 (15.2), the IC50 [2, 9] was 14.8 µM and the IC50 [2, 10] was over 1500 µM. The “Average of HCR (SD)” value ([3]; HCR=IC50 normoxia/IC50 anoxia) was 96.3 (26.2), the IC50 ([3]; DMS-114, anoxia (<0.01% O2), read-out: IC50 Average for Cpd.11Ms ANX (SD)) was 6.2 µM and the IC50 ([3]; DMS-114, normoxia (21% O2), read-out: IC50 Average for Cpd.11Ms NRX (SD)) was 564 µM. The “Average of HCR (SD)” value ([4]; HCR=IC50 normoxia/IC50 anoxia) was 52.6 (36.4), the IC50 [4, 9] was 28.7 µM and the IC50 [4, 10] was 1140 µM. For the same compound, the “Average of HCR (SD)” value ([5]; HCR=IC50 normoxia/IC50 anoxia) was 28.2 (5.4), the IC50 [5, 9] was 45.1 µM and the IC50 [5, 10] was 1250 µM. The “Average of HCR (SD)” value ([6]; HCR=IC50 normoxia/IC50 anoxia) was 28.8 (8.3), the IC50 [6, 9] was 53.1 µM and the IC50 [6, 10] was 1450 µM. The “Average of HCR (SD)” value ([7]; HCR=IC50 normoxia/IC50 anoxia) was 10.4 (3.0), the IC50 [7, 9] was 121 µM and the IC50 [7, 10] was 1250 µM. The “Average of HCR (SD)” value ([8]; HCR=IC50 normoxia/IC50 anoxia) was 24.0 (1.0), the IC50 [8, 9] was 43.6 µM and the IC50 [8, 10] was 1040 µM.
